Data taken from US20240409647A1, “BISPECIFIC BINDING PROTEINS AGAINST ALARMINS AND USES THEREOF” (SINOMAB BIOSCIENCE LIMITED, priority 2022, published 2024).
Where “and” joins values, the source holds several entries; their conditions need not be identical. Identical values can stand only once.

Legend:
IL-17RB = target: T1, IL-17RB (Homo sapiens, UniProt Q9NRM6); test: ELISA, SM17 binding to coated IL-17RB protein (human); conditions: two wells
T1 construct: purchased R&D systems
T1 sequence (Q9NRM6 18-502): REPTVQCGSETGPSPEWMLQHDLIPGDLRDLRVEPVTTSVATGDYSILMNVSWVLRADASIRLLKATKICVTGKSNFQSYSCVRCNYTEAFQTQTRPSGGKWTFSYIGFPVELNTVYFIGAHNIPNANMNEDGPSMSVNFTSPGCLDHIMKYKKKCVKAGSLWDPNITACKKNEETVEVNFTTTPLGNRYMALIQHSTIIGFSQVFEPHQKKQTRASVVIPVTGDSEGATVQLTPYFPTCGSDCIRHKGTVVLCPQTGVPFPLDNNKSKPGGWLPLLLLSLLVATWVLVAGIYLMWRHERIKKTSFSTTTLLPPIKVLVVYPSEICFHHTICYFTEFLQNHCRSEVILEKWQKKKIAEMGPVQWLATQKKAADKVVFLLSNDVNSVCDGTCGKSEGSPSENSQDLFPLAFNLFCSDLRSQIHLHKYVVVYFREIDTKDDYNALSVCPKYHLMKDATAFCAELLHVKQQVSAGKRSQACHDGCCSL
Procedure: A standard enzyme-linked immunosorbent assay (ELISA) method was used to determine the species specificity of SM17 against IL-17RB proteins. Briefly, IL-17RB proteins from human, mouse, cynomolgus or rhesus monkey (R&D systems, Minneapolis, MN) were diluted to 2.5 μg/ml in PBS and 50 μl of IL-17RB proteins were added to each well of ELISA strip. The strips were sealed with parafilm and incubated at 4° C. overnight for coating.
On the next day, strips were washed thrice with washing buffer (0.05% Tween 20 in PBS) and blocked with 100 μl per well with blocking buffer (3% BSA in PBS) for 2 hours RT before serially diluted SM17 (at a final concentration of 10, 2, 0.4, 0.08, 0.016, 0.0032, and 0.00064 μg/ml, respectively) was added.

[1] = test system: OVA-induced murine experimental asthma; test: Ovalbumin induced asthma on mice; format: in vivo, BALB/c mice
Procedure: Female BALB/c mice were induced with ovalbumin to elicit asthma like symptoms on mice. Briefly, mice were each sensitized with […] of ovalbumin (OVA) emulsified in 1 mg of aluminum hydroxide in a total volume of […] via intraperitoneal (IP) injections on Days 0 and 12. Mice were divided into 6 groups with 8 mice per group. Sensitized mice were exposed to aerosolized 5% OVA in sterile water, 20 minutes/day for six consecutive days (Days 19, 20, 21, 22, 23 and 24). Naïve mice inhaled the atomized water, 20 minutes/day, for six consecutive days. Mice were then i.v. injected with different concentrations of SM17, PBS (control), or dexamethasone (Dex) 4 hours before aerosol challenge, once per day (Day 19 to 24).
On day 25 (24 hours after the last OVA challenge), mice were anesthetized with Telazol® (20-40 mg/kg i.p.) and connected to a computer-controlled ventilator via the tracheal cannula. The time of expiration/inspiration and the respiratory rate were preset at 1.5:1 and 90/min, respectively. After a steady baseline was established, the resistance of the lung (RL) was recorded to evaluate the reaction of mice to a methacholine chloride gradient (0.025 and 0.05 mg/kg body weight); the methacholine chloride was injected into the vena jugulars externa at 5-min intervals via a fine needle. […] BALF from mice sacrificed on Day 25 was retrieved, and inflammatory cell number and the concentrations of inflammatory cytokine from BALF were determined.
Results are presented as means±SEM. One Way ANOVA, Dunnett's Multiple Comparison Test, *: P<0.05; **: P<0.01. Dex=Dexamethasone.

Human PBMCs = test: IL-5 and IL-13 release from human PBMC incubated with IL-2 and three alarmins; format: cell-based; conditions: SM17 5 μg/ml; IL-2 and three alarmins (10 ng/ml), three days; vs IgG4 isotype control
Procedure: Human PBMCs (4×10^5 per group, Ixcells) were incubated with IL-2 (10 unit/mL, PeproTech) and various alarmin/alarmin combinations to mimic the pro-inflammatory cytokines release during allergic diseases. For IL-5 and IL-13 releases, PBMCs were incubated with IL-2 and three alarmins (all 10 ng/ml) for three days. For CCL17 release, PBMC was incubated with TSLP (10 ng/ml) for 1 day. For CCL8 and IFNγ releases, PBMCs were incubated with IL-12 (10 ng/ml, Sino Biological) and IL-33 (10 ng/ml) for 1 day. Cells were pretreated with SM17 (5 μg/ml) or IgG4 isotype control (5 μg/ml) for an hour before the addition of cytokines.
Supernatants were collected and the cytokine concentration were measured by ELISA kits (R&D systems). These established assays were used to test the potency of and SM17 and bsBps. […] Results were expressed in absolute amount in pg/ml.
SM17, three different SM17-anti-IL33 bsBps and three different SM17-anti-TSLP bsBps (all at 5 μg/ml) were added to human PBMC cultures under conditions that shall induce the release of IFNγ, CCL8, CCL17 and IL-5 as described in Example 11 above. The levels of different cytokines and chemotactic factors in supernatant obtained in induced PBMC were evaluated using standard ELISA methods.

“SM17: humanized anti-IL17RB monoclonal antibody, human IgG4 isotype; HC SEQ ID NO: 32, LC SEQ ID NO: 33” was tested, and the “OD 450 nm Absorption, human IL17RB” value (IL-17RB; SM17 0.016 μg/mL) was 0.17, the “OD 450 nm Absorption, human IL17RB” value (IL-17RB; SM17 0.08 μg/mL) was 0.58 and 0.44 and the “OD 450 nm Absorption, human IL17RB” value (IL-17RB; SM17 0.4 μg/mL) was 1.10 and 1.14. For the same substance, the “OD 450 nm Absorption, human IL17RB” value (IL-17RB; SM17 2 μg/mL) was 1.74 and 1.61, the “OD 450 nm Absorption, human IL17RB” value (IL-17RB; SM17 10 μg/mL) was 1.82 and 1.88 and the “airway hyperresponsiveness (in words)” value ([1]; 1 mg/kg or 3 mg/kg SM17 before each OVA aerosolization) was “mild but not significant abrogation in AHR”. For the same substance, the “airway hyperresponsiveness (in words)” value ([1]; 5 mg/kg SM17 i.v. once per day, Day 19 to 24, methacholine challenge day 25) was “prevented airway hyperresponsiveness”, the “number of pulmonary infiltrated eosinophils (in words)” value ([1]; SM17 at 5 mg/kg) was “significantly reduce the number of pulmonary infiltrated eosinophils” and the “IL-13 levels in BALF (in words)” value ([1]; SM17 at 5 mg/kg, Day 25) was “significantly reduced the IL-13 levels”. The “eosinophil number in BALF (in words)” value ([1]; SM17 at 5 mg/kg, Day 25) was “significantly reduced”, the “IL-5 levels in BALF (in words)” value ([1]; SM17 at 1, 3 and 5 mg/kg, Day 25) was “significantly reduced the IL-5 levels in BALF” and the “secretion of IL-5 (in words)” value (Human PBMCs) was “effectively suppress”. For the same substance, the “secretion of IL-13 (in words)” value (Human PBMCs) was “effectively suppress”.
